Laboratory results reported in ChEMBL document CHEMBL1697781, “Assessment of the health effects of chemicals in humans: II. Construction of an adverse effects database for QSAR modeling” (Curr Drug Discov Technol, 2004).

System: Hepatotoxicity
Experiment: FDA HLAED, alkaline phosphatase increase
Settings: human
For GGT Increase - Index Value in this document: reference of the scale not given here.
For LDH Increase - Index Value in this document: reference of the scale not given here.

Row | Structure (SMILES) | Alkaline Phosphatase Increase - Activity Score | Alkaline Phosphatase Increase - Index Value | Alkaline Phosphatase Increase - Number of Reports
1 | OCc1cc(C(O)CNCCCCCCOCCCCc2ccccc2)ccc1O (configuration not stated) [SALMETEROL] | Inactive | 0 | < 4
2 | C#CCN(C)[C@H](C)Cc1ccccc1 [SELEGILINE] | Inactive | 2.2 | >= 4
3 | CN[C@H]1CC[C@@H](c2ccc(Cl)c(Cl)c2)c2ccccc21 [SERTRALINE] | Inactive | 2 | >= 4
4 | FCOC(C(F)(F)F)C(F)(F)F [SEVOFLURANE] | Inactive | 3.1 | < 4
5 | CC(C)NCC(O)c1ccc(NS(C)(=O)=O)cc1 (configuration not stated) [SOTALOL] | Inactive | 1 | < 4
6 | C[C@@H]1CN(c2c(F)c(N)c3c(=O)c(C(=O)O)cn(C4CC4)c3c2F)C[C@H](C)N1 [SPARFLOXACIN] | Inactive | 0 | < 4
7 | Cc1cn([C@H]2C=C[C@@H](CO)O2)c(=O)[nH]c1=O [STAVUDINE] | Inactive | 2.4 | >= 4
8 | CN(N=O)C(=O)N[C@@H](C=O)[C@@H](O)[C@H](O)[C@H](O)CO [STREPTOZOCIN] | Inactive | 11.8 | < 4
9 | Clc1ccc(CSC(Cn2ccnc2)c2ccc(Cl)cc2Cl)cc1 (configuration not stated) [SULCONAZOLE] | Inactive | 0 | < 4

System: Hepatotoxicity
Experiment: FDA HLAED, liver enzyme composite activity
Settings: human

Row | Structure (SMILES) | Composite Activity - Active | Composite Activity - Marginal | Composite Activity - Score
10 | OCc1cc(C(O)CNCCCCCCOCCCCc2ccccc2)ccc1O (configuration not stated) [SALMETEROL] | 0 | 0 | Inactive
11 | C#CCN(C)[C@H](C)Cc1ccccc1 [SELEGILINE] | 0 | 0 | Inactive
12 | FCOC(C(F)(F)F)C(F)(F)F [SEVOFLURANE] | 0 | 0 | Inactive
13 | CC(C)NCC(O)c1ccc(NS(C)(=O)=O)cc1 (configuration not stated) [SOTALOL] | 0 | 0 | Inactive
14 | C[C@@H]1CN(c2c(F)c(N)c3c(=O)c(C(=O)O)cn(C4CC4)c3c2F)C[C@H](C)N1 [SPARFLOXACIN] | 0 | 0 | Inactive
15 | Cc1cn([C@H]2C=C[C@@H](CO)O2)c(=O)[nH]c1=O [STAVUDINE] | 2 | 1 | Active
16 | CN(N=O)C(=O)N[C@@H](C=O)[C@@H](O)[C@H](O)[C@H](O)CO [STREPTOZOCIN] | 0 | 0 | Inactive

Same assay, conditions: human, Liver

Row | Structure (SMILES) | Composite Activity - Active | Composite Activity - Marginal | Composite Activity - Score
17 | CN[C@H]1CC[C@@H](c2ccc(Cl)c(Cl)c2)c2ccccc21 [SERTRALINE] | 0 | 0 | Inactive
18 | Clc1ccc(CSC(Cn2ccnc2)c2ccc(Cl)cc2Cl)cc1 (configuration not stated) [SULCONAZOLE] | 0 | 0 | Inactive

System: Hepatotoxicity
Experiment: FDA HLAED, gamma-glutamyl transferase (GGT) increase
Settings: human

Row | Structure (SMILES) | GGT Increase - Activity Score | GGT Increase - Index Value | GGT Increase - Number of Reports
19 | OCc1cc(C(O)CNCCCCCCOCCCCc2ccccc2)ccc1O (configuration not stated) [SALMETEROL] | Inactive | 0.1 | < 4
20 | C#CCN(C)[C@H](C)Cc1ccccc1 [SELEGILINE] | Inactive | 1.8 | >= 4
21 | CN[C@H]1CC[C@@H](c2ccc(Cl)c(Cl)c2)c2ccccc21 [SERTRALINE] | Inactive | 2 | >= 4
22 | FCOC(C(F)(F)F)C(F)(F)F [SEVOFLURANE] | Inactive | 0 | < 4
23 | CC(C)NCC(O)c1ccc(NS(C)(=O)=O)cc1 (configuration not stated) [SOTALOL] | Inactive | 1 | < 4
24 | C[C@@H]1CN(c2c(F)c(N)c3c(=O)c(C(=O)O)cn(C4CC4)c3c2F)C[C@H](C)N1 [SPARFLOXACIN] | Inactive | 0 | < 4
25 | Cc1cn([C@H]2C=C[C@@H](CO)O2)c(=O)[nH]c1=O [STAVUDINE] | Marginally Active | 3.6 | >= 4
26 | CN(N=O)C(=O)N[C@@H](C=O)[C@@H](O)[C@H](O)[C@H](O)CO [STREPTOZOCIN] | Inactive | 0 | < 4
27 | Clc1ccc(CSC(Cn2ccnc2)c2ccc(Cl)cc2Cl)cc1 (configuration not stated) [SULCONAZOLE] | Inactive | 0 | < 4

System: Hepatotoxicity
Experiment: FDA HLAED, serum glutamic pyruvic transaminase (SGPT) increase
Settings: human

Row | Structure (SMILES) | SGPT Increase - Activity Score | SGPT Increase - Index Value | SGPT Increase - Number of Reports
28 | OCc1cc(C(O)CNCCCCCCOCCCCc2ccccc2)ccc1O (configuration not stated) [SALMETEROL] | Inactive | 0.1 | < 4
29 | C#CCN(C)[C@H](C)Cc1ccccc1 [SELEGILINE] | Inactive | 1.5 | >= 4
30 | CN[C@H]1CC[C@@H](c2ccc(Cl)c(Cl)c2)c2ccccc21 [SERTRALINE] | Inactive | 2.1 | >= 4
31 | FCOC(C(F)(F)F)C(F)(F)F [SEVOFLURANE] | Inactive | 0 | < 4
32 | CC(C)NCC(O)c1ccc(NS(C)(=O)=O)cc1 (configuration not stated) [SOTALOL] | Inactive | 0 | < 4
33 | C[C@@H]1CN(c2c(F)c(N)c3c(=O)c(C(=O)O)cn(C4CC4)c3c2F)C[C@H](C)N1 [SPARFLOXACIN] | Inactive | 0 | < 4
34 | Cc1cn([C@H]2C=C[C@@H](CO)O2)c(=O)[nH]c1=O [STAVUDINE] | Active | 9.7 | >= 4
35 | CN(N=O)C(=O)N[C@@H](C=O)[C@@H](O)[C@H](O)[C@H](O)CO [STREPTOZOCIN] | Inactive | 0 | < 4
36 | Clc1ccc(CSC(Cn2ccnc2)c2ccc(Cl)cc2Cl)cc1 (configuration not stated) [SULCONAZOLE] | Inactive | 0 | < 4

System: Hepatotoxicity
Experiment: FDA HLAED, lactate dehydrogenase (LDH) increase
Settings: human

Row | Structure (SMILES) | LDH Increase - Activity Score | LDH Increase - Index Value | LDH Increase - Number of Reports
37 | OCc1cc(C(O)CNCCCCCCOCCCCc2ccccc2)ccc1O (configuration not stated) [SALMETEROL] | Inactive | 0 | < 4
38 | C#CCN(C)[C@H](C)Cc1ccccc1 [SELEGILINE] | Inactive | 0 | < 4
39 | CN[C@H]1CC[C@@H](c2ccc(Cl)c(Cl)c2)c2ccccc21 [SERTRALINE] | Inactive | 0.9 | >= 4
40 | FCOC(C(F)(F)F)C(F)(F)F [SEVOFLURANE] | Inactive | 1.6 | < 4
41 | CC(C)NCC(O)c1ccc(NS(C)(=O)=O)cc1 (configuration not stated) [SOTALOL] | Inactive | 1 | < 4
42 | C[C@@H]1CN(c2c(F)c(N)c3c(=O)c(C(=O)O)cn(C4CC4)c3c2F)C[C@H](C)N1 [SPARFLOXACIN] | Inactive | 0 | < 4
43 | Cc1cn([C@H]2C=C[C@@H](CO)O2)c(=O)[nH]c1=O [STAVUDINE] | Inactive | 1.8 | < 4
44 | CN(N=O)C(=O)N[C@@H](C=O)[C@@H](O)[C@H](O)[C@H](O)CO [STREPTOZOCIN] | Inactive | 0 | < 4
45 | Clc1ccc(CSC(Cn2ccnc2)c2ccc(Cl)cc2Cl)cc1 (configuration not stated) [SULCONAZOLE] | Inactive | 0 | < 4

System: Hepatotoxicity
Experiment: FDA HLAED, serum glutamic oxaloacetic transaminase (SGOT) increase
Settings: human

Row | Structure (SMILES) | SGOT Increase - Activity Score | SGOT Increase - Index Value | SGOT Increase - Number of Reports
46 | OCc1cc(C(O)CNCCCCCCOCCCCc2ccccc2)ccc1O (configuration not stated) [SALMETEROL] | Inactive | 0.1 | < 4
47 | C#CCN(C)[C@H](C)Cc1ccccc1 [SELEGILINE] | Inactive | 0.4 | < 4
48 | CN[C@H]1CC[C@@H](c2ccc(Cl)c(Cl)c2)c2ccccc21 [SERTRALINE] | Inactive | 2.7 | >= 4
49 | FCOC(C(F)(F)F)C(F)(F)F [SEVOFLURANE] | Inactive | 4.6 | < 4
50 | CC(C)NCC(O)c1ccc(NS(C)(=O)=O)cc1 (configuration not stated) [SOTALOL] | Inactive | 3 | < 4
51 | C[C@@H]1CN(c2c(F)c(N)c3c(=O)c(C(=O)O)cn(C4CC4)c3c2F)C[C@H](C)N1 [SPARFLOXACIN] | Inactive | 0 | < 4
52 | Cc1cn([C@H]2C=C[C@@H](CO)O2)c(=O)[nH]c1=O [STAVUDINE] | Active | 9.1 | >= 4
53 | CN(N=O)C(=O)N[C@@H](C=O)[C@@H](O)[C@H](O)[C@H](O)CO [STREPTOZOCIN] | Inactive | 0 | < 4
54 | Clc1ccc(CSC(Cn2ccnc2)c2ccc(Cl)cc2Cl)cc1 (configuration not stated) [SULCONAZOLE] | Inactive | 0 | < 4
